From patent US20140242093A1, “METHODS AND COMPOSITIONS FOR MODULATING THE INNATE IMMUNE RESPONSE AND/OR MYOGENESIS IN A MAMMALIAN SUBJECT” (FRED HUTCHINSON CANCER RESEARCH CENTER, priority 2011, published 2014)

Tested on: control human primary myoblasts
Experiment: Expression microarray of primary myoblasts transduced with lentivirus carrying DUX4-fl, DUX4-s or GFP
Settings: log2 fc vs lenti-GFP, 24 h
Experimental: Primary human myoblasts were collected and cultured as previously described (Snider et al., 2010). Primary myoblasts were maintained at or below 70% confluency for proliferation. For differentiation, cells were allowed to reach 95-100% confluency in growth medium. Once confluency was reached, the cells were changed to differentiation medium (F10 media supplemented with 1% horse serum, 10 μg/mL insulin, and 10 μg/mL transferrin, penicillin/streptomycin) and maintained for 4 days. Human RD cells were grown in DMEM in 10% bovine calf serum (Hyclone) and penicillin/streptomycin. The primary myoblasts were transduced with lentivirus carrying DUX-fl, DUX4- or GFP (MOI=15).
Expression microarrays were performed on the transduced cells at 24 hours after transduction as follows. […] Samples were analyzed by Illumina Human Whole Genome microarrays. Probe intensities were corrected, normalized, and summarized by the Lumi package of Bioconductor (Du et al., 2008). Differentially expressed genes were identified by the LIMMA package of Bioconductor (Wettenhall and Smyth, 2004). Gene set enrichment analysis (GSEA) was performed using the Bioconductor GOstats package (Falcon and Gentleman, 2007).

Substance: DUX4-fl: full-length DUX4 protein (SEQ ID NO:110), expressed from lentiviral or pCS2 vectors or in vitro translated
- full_fc ART3: 4.363
- full_fc C6orf148: 6.759
- full_fc C12orf50: 4.522
- full_fc CA2: 6.091
- full_fc CCNA1: 7.526
- full_fc CSAG3: 5.871
- full_fc DEFB103A: 6.442
- full_fc ENTPD8: 4.073
- full_fc HBA1: 4.787
- full_fc HBA2: 4.721
- full_fc HIST2H3A: 4.945
- full_fc KHDC1L: 8.012
- full_fc LOC136157: 8.299
- full_fc LOC196120: 8.179
- full_fc LOC284428: 8.023
- full_fc LOC340096: 7.382
- full_fc LOC340970: 8.316
- full_fc LOC342900: 7.391
- full_fc LOC390031: 8.331
- full_fc LOC391742: 5.733
- full_fc LOC391764: 5.821
- full_fc LOC391766: 5.724
- full_fc LOC391767: 5.492
- full_fc LOC391769: 8.19
- full_fc LOC399939: 6.931
- full_fc LOC399940: 4.727
- full_fc LOC401860: 4.272
- full_fc LOC402199: 4.392
- full_fc LOC402207: 4.903
- full_fc LOC440040: 7.534
- full_fc LOC440563: 5.312
- full_fc LOC441584: 7.781
- full_fc LOC642127: 6.112
- full_fc LOC642148: 6.851
- full_fc LOC642219: 4.799
- full_fc LOC642362: 8.016
- full_fc LOC643263: 8.345
- full_fc LOC643445: 8.25
- full_fc LOC645558: 4.803
- full_fc LOC645669: 8.202
- full_fc LOC646066: 4.391
- full_fc LOC646103: 4.658
- full_fc LOC646698: 6.012
- full_fc LOC646754: 5.11
- full_fc LOC647827: 4.053
- full_fc LOC651308: 8.169
- full_fc LOC653192: 8.228
- full_fc LOC653656: 7.897
- full_fc LOC653657: 7.857
- full_fc LOC654101: 5.034
- full_fc LOC729368: 5.416
- full_fc LOC729384: 6.832
- full_fc LOC729458: 8.247
- full_fc LOC729516: 5.955
- full_fc LOC729694: 4.029
- full_fc LOC729700: 4.817
- full_fc LOC729706: 4.227
- full_fc LOC729731: 5.007
- full_fc LOC730974: 7.715
- full_fc LOC732393: 4.637
- full_fc LOC100131392: 6.976
- full_fc LOC100131539: 4.629
- full_fc LOC100133446: 4.635
- full_fc LOC100133984: 6.204
- full_fc LOC100134006: 7.087
- full_fc LOC100134199: 8.048
- full_fc MBD3L2: 7.623
- full_fc NP: 6.961
- full_fc NXF1: 4.233
- full_fc OR2T34: 4.519
- full_fc PPP2R2B: 4.13
- full_fc PRAMEF1: 8.072
- full_fc PRAMEF2: 6.439
- full_fc PRAMEF4: 7.06
- full_fc PRAMEF5: 7.35
- full_fc PRAMEF6: 5.826
- full_fc PRAMEF7: 7.631
- full_fc PRAMEF9: 7.131
- full_fc PRAMEF10: 6.064
- full_fc PRAMEF11: 5.94
- full_fc PRAMEF12: 7.802
